Measurements reported in patent US9556229B2, “Modification of peptides using a bis(thioether)arylbridge approach” (priority 2012, dated 2017).
Starred links: 1 amine or outer side, 2 acyl side, 3 side chain; linkers in the order of their positions; H or OH if unused. Non-standard residues stand in square brackets, D forms with d. Residues, ends and D or L forms follow the SMILES beside them. ξ: configuration not given here. Ala(9-anthryl) = N[C@@H](Cc1c2ccccc2cc2ccccc12)C(=O)O; Pro(4R-Bn) = O=C(O)[C@@H]1C[C@@H](Cc2ccccc2)CN1; Bip = N[C@@H](Cc1ccc(-c2ccccc2)cc1)C(=O)O; Dip = N[C@H](C(=O)O)C(c1ccccc1)c1ccccc1; 1Nal = N[C@@H](Cc1cccc2ccccc12)C(=O)O; 2Nal = N[C@@H](Cc1ccc2ccccc2c1)C(=O)O; NMePhg = CN[C@H](C(=O)O)c1ccccc1; Tic = O=C(O)[C@@H]1Cc2ccccc2CN1; Cha = N[C@@H](CC1CCCCC1)C(=O)O; Cysteamide = C(CS[*:3])N[*:1]; Chg = N[C@H](C(=O)O)C1CCCCC1; Phg = N[C@H](C(=O)O)c1ccccc1; Tle = CC(C)(C)[C@H](N)C(=O)O; ξDisc = O=C(O)C1NCc2ccccc21; NMeA = CN[C@@H](C)C(=O)O

Key:
[1] = test system: MDA-MB-231 breast cancer cell line
[2] = test system: MCF-7 breast cancer cell line; assay: Cell viability, MCF-7, PrestoBlue assay; type: cell-based; details: NA = not active
Procedure: To test our theory we decided to focus on Smac multimers. First, we synthesized a small library of Smac compounds (see, Tables 3 and 4) varying in position 4 substituents having general structure N-MeAla-Tle-4-(trans-Bn)-Pro-Xaa-NHCH2CH2—SH (SEQ ID NO:38), which were tested in vitro using MDA-MB-231 and MCF-7 breast cancer cell lines and PrestoBlue™ assay (Invitrogen).

Row | Structure (SMILES) | EC50 [1] [µM] | EC50 [2] [µM]
1 | CN[C@@H](C)C(=O)N[C@H](C(=O)N1C[C@H](Cc2ccccc2)C[C@H]1C(=O)N[C@H](C(=O)NCCS)c1ccccc1)C(C)(C)C [SMAC1, N^MeAla-Tle-(4-Bzl)Pro-Phg-NHCH2CH2SH] (H-[NMeA][Tle][Pro(4R-Bn)][Phg]-Cysteamide; N-terminus assumed) | 17.2 ± 6.4 | 31.2 ± 1.4
2 | CN[C@@H](C)C(=O)N[C@H](C(=O)N1C[C@H](Cc2ccccc2)C[C@H]1C(=O)N(C)[C@H](C(=O)NCCS)c1ccccc1)C(C)(C)C [SMAC2, N^MeAla-Tle-(4-Bzl)Pro-N^MePhg-NHCH2CH2SH] (H-[NMeA][Tle][Pro(4R-Bn)][NMePhg]-Cysteamide; N-terminus assumed) | 23.8 ± 4.5 | 43.6 ± 1.6
3 | CN[C@@H](C)C(=O)N[C@H](C(=O)N1C[C@H](Cc2ccccc2)C[C@H]1C(=O)NCc1ccc(CC(=O)NCCS)cc1)C(C)(C)C [SMAC3, N^MeAla-Tle-(4-Bzl)Pro-Amp-NHCH2CH2SH] | 14.3 ± 3.2 | 
4 | CN[C@@H](C)C(=O)N[C@H](C(=O)N1C[C@H](Cc2ccccc2)C[C@H]1C(=O)N1Cc2ccccc2C1C(=O)NCCS)C(C)(C)C (stereo partly drawn) [SMAC4, N^MeAla-Tle-(4-Bzl)Pro-Disc-NHCH2CH2SH] (H-[NMeA][Tle][Pro(4R-Bn)][ξDisc]-Cysteamide; N-terminus assumed) | 47.1 ± 15.9 | 41.6 ± 3.7
5 | CN[C@@H](C)C(=O)N[C@H](C(=O)N1C[C@H](Cc2ccccc2)C[C@H]1C(=O)N1c2ccccc2C[C@H]1C(=O)NCCS)C(C)(C)C [SMAC5, N^MeAla-Tle-(4-Bzl)Pro-Idc-NHCH2CH2SH] | 68.3 ± 4 | 477 ± 48.4
6 | CN[C@@H](C)C(=O)N[C@H](C(=O)N1C[C@H](Cc2ccccc2)C[C@H]1C(=O)N[C@H](C(=O)NCCS)C1CCCCC1)C(C)(C)C [SMAC6, N^MeAla-Tle-(4-Bzl)Pro-Chg-NHCH2CH2SH] (H-[NMeA][Tle][Pro(4R-Bn)][Chg]-Cysteamide; N-terminus assumed) | 9.8 ± 3.1 | 31.2 ± 2.1
7 | CN[C@@H](C)C(=O)N[C@H](C(=O)N1C[C@H](Cc2ccccc2)C[C@H]1C(=O)NC[C@H]1CC[C@H](C(=O)NCCS)CC1)C(C)(C)C [SMAC7, N^MeAla-Tle-(4-Bzl)Pro-Amc-NHCH2CH2SH] | 91.8 ± 16.3 | 86.3 ± 10.5
8 | CN[C@@H](C)C(=O)N[C@H](C(=O)N1C[C@H](Cc2ccccc2)C[C@H]1C(=O)N[C@@H](Cc1ccccc1)C(=O)NCCS)C(C)(C)C [SMAC8, N^MeAla-Tle-(4-Bzl)Pro-Phe-NHCH2CH2SH] | 34.3 ± 6.7 | 33.3 ± 1.5
9 | CN[C@@H](C)C(=O)N[C@H](C(=O)N1C[C@H](Cc2ccccc2)C[C@H]1C(=O)N[C@@H](Cc1c(F)c(F)c(F)c(F)c1F)C(=O)NCCS)C(C)(C)C [SMAC9, N^MeAla-Tle-(4-Bzl)Pro-PhF-NHCH2CH2SH] | 27 ± 3.2 | 19.8 ± 3
10 | CN[C@@H](C)C(=O)N[C@H](C(=O)N1C[C@H](Cc2ccccc2)C[C@H]1C(=O)N[C@H](CC(=O)NCCS)Cc1ccccc1)C(C)(C)C [SMAC10, N^MeAla-Tle-(4-Bzl)Pro-bhPhe-NHCH2CH2SH] | 29.7 ± 3.3 | 23.9 ± 2.1
11 | CN[C@@H](C)C(=O)N[C@H](C(=O)N1C[C@H](Cc2ccccc2)C[C@H]1C(=O)N1Cc2ccccc2C[C@H]1C(=O)NCCS)C(C)(C)C [SMAC11, N^MeAla-Tle-(4-Bzl)Pro-Tic-NHCH2CH2SH] (H-[NMeA][Tle][Pro(4R-Bn)][Tic]-Cysteamide; N-terminus assumed) | 13.3 ± 1.3 | 5.3 ± 0.6
12 | CN[C@@H](C)C(=O)N[C@H](C(=O)N1C[C@H](Cc2ccccc2)C[C@H]1C(=O)N[C@@H](CC1CCCCC1)C(=O)NCCS)C(C)(C)C [SMAC12, N^MeAla-Tle-(4-Bzl)Pro-Cha-NHCH2CH2SH] (H-[NMeA][Tle][Pro(4R-Bn)][Cha]-Cysteamide; N-terminus assumed) | 10.1 ± 2.6 | 21.2 ± 2.4
13 | CN[C@@H](C)C(=O)N[C@H](C(=O)N1C[C@H](Cc2ccccc2)C[C@H]1C(=O)NC(CC(=O)NCCS)c1cccc2ccccc12)C(C)(C)C (stereo partly drawn) [SMAC13, N^MeAla-Tle-(4-Bzl)Pro-bh^1NalGly-NHCH2CH2SH] | 21.7 ± 1.3 | 12.3 ± 0.5
14 | CN[C@@H](C)C(=O)N[C@H](C(=O)N1C[C@H](Cc2ccccc2)C[C@H]1C(=O)N[C@@H](Cc1cccc2ccccc12)C(=O)NCCS)C(C)(C)C [SMAC14, N^MeAla-Tle-(4-Bzl)Pro-^1Na1-NHCH2CH2SH] (H-[NMeA][Tle][Pro(4R-Bn)][1Nal]-Cysteamide; N-terminus assumed) | 4.5 ± 1.1 | 13.4 ± 0.5
15 | CN[C@@H](C)C(=O)N[C@H](C(=O)N1C[C@H](Cc2ccccc2)C[C@H]1C(=O)N[C@@H](Cc1cccc2ccccc12)C(=O)NCCSCc1ccc(CSCCNC(=O)[C@H](Cc2cccc3ccccc23)NC(=O)[C@@H]2C[C@@H](Cc3ccccc3)CN2C(=O)[C@@H](NC(=O)[C@H](C)NC)C(C)(C)C)cc1)C(C)(C)C [SMAC14-2X, (N^MeAla-Tle-(4-Bzl)Pro-^1Nal-NHCH2CH2S)2—(CH2)2Ph] |  | 3.5 ± 1.6
16 | CN[C@@H](C)C(=O)N[C@H](C(=O)N1C[C@H](Cc2ccccc2)C[C@H]1C(=O)N[C@@H](Cc1cccc2ccccc12)C(=O)NCCSCc1cc(CSCCNC(=O)[C@H](Cc2cccc3ccccc23)NC(=O)[C@@H]2C[C@@H](Cc3ccccc3)CN2C(=O)[C@@H](NC(=O)[C@H](C)NC)C(C)(C)C)cc(CSCCNC(=O)[C@H](Cc2cccc3ccccc23)NC(=O)[C@@H]2C[C@@H](Cc3ccccc3)CN2C(=O)[C@@H](NC(=O)[C@H](C)NC)C(C)(C)C)c1)C(C)(C)C [SMAC14-3X, (N^MeAla-Tle-(4-Bzl)Pro-^1Nal-NHCH2CH2S)3—(CH2)3Ph] | 7.2 ± 1.5 | 120 ± 8.4
17 | CN[C@@H](C)C(=O)N[C@H](C(=O)N1C[C@H](Cc2ccccc2)C[C@H]1C(=O)N[C@@H](Cc1ccc2ccccc2c1)C(=O)NCCS)C(C)(C)C [SMAC15, N^MeAla-Tle-(4-Bzl)Pro-^2Nal-NHCH2CH2SH] (H-[NMeA][Tle][Pro(4R-Bn)][2Nal]-Cysteamide; N-terminus assumed) | 9.4 ± 0.5 | 10.5 ± 0.6
18 | CN[C@@H](C)C(=O)N[C@H](C(=O)N1C[C@H](Cc2ccccc2)C[C@H]1C(=O)N[C@H](C(=O)NCCS)C(c1ccccc1)c1ccccc1)C(C)(C)C [SMAC16, N^MeAla-Tle-(4-Bzl)Pro-Dpa-NHCH2CH2SH] (H-[NMeA][Tle][Pro(4R-Bn)][Dip]-Cysteamide; N-terminus assumed) | 9.4 ± 0.6 | 11.3 ± 1.8
19 | CN[C@@H](C)C(=O)N[C@H](C(=O)N1C[C@H](Cc2ccccc2)C[C@H]1C(=O)N[C@@H](Cc1ccc(-c2ccccc2)cc1)C(=O)NCCS)C(C)(C)C [SMAC17, N^MeAla-Tle-(4-Bzl)Pro-Bip-NHCH2CH2SH] (H-[NMeA][Tle][Pro(4R-Bn)][Bip]-Cysteamide; N-terminus assumed) | 10.6 ± 0.9 | 5.7 ± 0.9
20 | CN[C@@H](C)C(=O)N[C@H](C(=O)N1C[C@H](Cc2ccccc2)C[C@H]1C(=O)N[C@@H](Cc1ccc(-c2ccccc2)cc1)C(=O)NCCSCc1ccc(CSCCNC(=O)[C@H](Cc2ccc(-c3ccccc3)cc2)NC(=O)[C@@H]2C[C@@H](Cc3ccccc3)CN2C(=O)[C@@H](NC(=O)[C@H](C)NC)C(C)(C)C)cc1)C(C)(C)C [SMAC17-2X, (N^MeAla-Tle-(4-Bzl)Pro-Bip-NHCH2CH2S)2—(CH2)2Ph] |  | 1.7 ± 0.4
21 | CN[C@@H](C)C(=O)N[C@H](C(=O)N1C[C@H](Cc2ccccc2)C[C@H]1C(=O)N[C@@H](Cc1c2ccccc2cc2ccccc12)C(=O)NCCS)C(C)(C)C [SMAC18, N^MeAla-Tle-(4-Bzl)Pro-Ant-NHCH2CH2SH] (H-[NMeA][Tle][Pro(4R-Bn)][Ala(9-anthryl)]-Cysteamide) | 17.3 ± 1 | 
